Patent US20110130285A1, “COMPOSITION FOR PROMOTING ROOT NODULE FORMATION OF PLANTS AND A METHOD FOR PROMOTING ROOT NODULE FORMATION OF PLANTS” (priority 2009, published 2011)

How the values were obtained:
[1] = tested on: soybean (Tanba-kuro, Chusei-hikari-kuro, Sachiyutaka); experiment: Inosine sprayed on soil surface: root nodule formation and growth of soybean (Example 1); assay type: in vivo; conditions: 2 ppm and 20 ppm inosine solution, 250 ml sprayed on soil surface 7, 10 and 15 days after seeding, measured 20 days after seeding, all varieties Tanba-kuro, vs distilled water
Description: Various varieties of soybeans (black soybeans: Tanba-kuro and Chusei-hikari-kuro, white soybean: Sachiyutaka) were each seeded in 0.6 L of soil (marketed vermiculite, fertilizer was not added) contained in each of No. 4 pots (diameter: 12 cm). For each variety, 7 individuals showing good growth before development of primary leaf were selected per pot. Seven individuals were used for each of the following treatment groups.
2. 2 ppm Inosine solution group
3. 20 ppm Inosine solution group
4. 100 ppm Inosine solution group
Each solution in a volume of 250 ml was splayed on the soil surface in the pot, 7, 10 and 15 days after the seeding. The inosine concentrations in the soil given as a one-time application were 0.83 ppm for the 2 ppm solution group, 8.3 ppm for the 20 ppm solution group, and 41.7 ppm for the 100 ppm solution group, which were equivalent to 442 g/ha, 4,425 g/ha, and 22.1 kg/ha, respectively. The inosine solutions were prepared by diluting a 2% inosine solution (Ikuou, Shoko Agri Co., Ltd., containing 0.52% KOH as pH modifier in order to promote dissolution of inosine) with distilled water.
Twenty days after the seeding, the number of root nodules (FIG. 1) and the dry weight of aboveground parts (FIG. 2) were measured.

[2] = tested on: plant roots; conditions: applied to soil or hydroponic water; leaf vegetables, fruit vegetables, root vegetables, flowers and fruit trees (Japanese Patent No. 2927269); cited from earlier work
[3] = tested on: Soybean (Sachiyutaka); experiment: Inosine applied by irrigation to soybean-growing vermiculite, low and high soil nutrient (Example 4); assay type: in vivo; conditions: 2 ppm and 20 ppm inosine solutions, irrigation 10, 17 and 25 days after seeding; 33 days after seeding; same soil fertilizer condition (low or high soil nutrient); vs distilled water groups
Procedure: Soybean (Sachiyutaka) was transplanted to 1.4 L of soil (vermiculite, moisture content: 50%) contained in each of pots (diameter: 15 cm). The treatment groups included the distilled water groups (Groups 1 and 4) and the inosine application groups (Groups 2, 3, 5 and 6), in which 2 ppm and 20 ppm inosine solutions were applied (Ikuou [Shoko Agri Co., Ltd.] was diluted with distilled water and applied), as shown in Table 3. The distilled water groups and the inosine application groups both include a group in which calcium superphosphate and potassium sulfate were added as fertilizers in amounts of 40 mg/pot in terms of P2O5 and K2O, respectively, and a group in which an organic fertilizer (“Hanasaku Hiryo (1.5-9-4.5)”, Tosho Co., Ltd.) was added in an amount of 2 g/pot (N:P2O5:K2O=30:180:90 mg/pot). The root nodule bacterium (“Mame-Zo”, Tokachi Federation of Agricultural Cooperative Associations) was added at a concentration of 4×10^4 cfu/cm^3 of soil. One individual showing good growth before development of a primary leaf was selected from each pot, and five individuals were used for measurement of each treatment group. Either distilled water or each of the inosine solutions in a volume of 250 ml was applied by irrigation, 10, 17 and 25 days after the seeding. The inosine concentrations in the soil given as a one-time application were 0.36 ppm for the 2 ppm solution groups, and 3.6 ppm for the 20 ppm solution groups, which were equivalent to 282 g/ha and 2,825 g/ha, respectively. Under the low nutrient soil condition (Groups 1 to 3), etiolation of the leaves was observed and considered to be due to deficiency of trace components. Accordingly, a solution of the composition shown in Table 4 was applied in a volume of 100 ml/pot by irrigation, 20 days and 27 days after the transplantation of the soybean. Even in this case, the nutrient concentration was lower than that of the high soil nutrient groups (Groups 4 to 6). [table] Thirty-three days after the seeding, the number of root nodules (FIG. 7), the dry weight of root nodules (FIG. 8), the dry weight of aboveground parts (FIG. 9), and the dry weight of underground parts (FIG. 10) were measured. Under the same soil fertilizer condition, the applications of the 2 ppm and 20 ppm inosine solutions both increased all of the number of root nodules, the dry weight of root nodules, the dry weight of aboveground parts and the dry weight of underground parts, as compared with the distilled water groups (0 ppm groups).

[4] = tested on: Soybean (Sachiyutaka); experiment: Inosine applied to soybean by foliar spray, soil inoculated with Bradyrhizobium japonicum (Example 3); assay type: in vivo; conditions: 32 days after seeding; for Dry weight of aboveground part / Dry weight of underground part: foliar spray, table prints Inosine (ppm) 2, text 10 ppm, relative value, distilled water group taken as 100
Procedure: Soybean (Sachiyutaka) was seeded in 0.7 kg of soil (marketed black soil, moisture content: 35%) contained in each of pots. Calcium superphosphate and potassium sulfate were added as fertilizers in the amounts of 28 mg/pot, in terms of P2O5 and K2O, respectively. As root nodule bacterium, “Mame-Zo” (containing a soybean root nodule bacterium, Bradyrhizobium japonicum, Tokachi Federation of Agricultural Cooperative Associations, http://www.nokyoren.or.jp/material.html) was added to the soil at a root nodule bacterium concentration of 10^4 cfu/cm^3 of soil. The treatment groups included the distilled water group and the 10 ppm inosine solution group. One individual showing good growth before development of a primary leaf was selected from each pot, and five individuals were used for each treatment group. Either distilled water or the inosine solution in a volume of 5 ml was applied by foliar spray, 10, 14 and 19 days after the seeding. To the distilled water and the inosine solution, a spreading composition (Approach BI, Kao Corp., “Approach” is a registered trade name of Kao Corp.) was added at a concentration of 0.1 v/v %. The spray amount of inosine given as a one-time application was 10 g/ha in the 10 ppm inosine solution group. Thirty-two days after the seeding, the number of root nodules (FIG. 5), the dry weight of root nodules (FIG. 6), the dry weight of aboveground parts, and the dry weight of underground parts (Table 2) were measured. The dry weight of root nodules, the dry weight of aboveground parts, and the dry weight of underground parts were indicated with relative values based on the values of the distilled water group, which were taken as 100. The application of the 10 ppm inosine solution increased all of the number of root nodules, the dry weight of root nodules, the dry weight of aboveground parts and the dry weight of underground parts.

[5] = tested on: Soybean (Sachiyutaka); experiment: Inosine applied by irrigation into soybean-growing black soil (Example 2); assay type: in vivo; conditions: 34 days after seeding; for Dry weight of aboveground part / Dry weight of underground part: 2 ppm inosine, irrigation, relative value, distilled water group taken as 100
Procedure: Soybean (Sachiyutaka) was seeded in 1 kg of soil (marketed black soil, moisture content: 35%) contained in each of the pots. Calcium superphosphate and potassium sulfate were added as fertilizers in the amounts of 40 mg/pot, in terms of P2O5 and K2O, respectively. The treatment groups included the distilled water group and the 2 ppm inosine solution group. One individual showing good growth before development of a primary leaf was selected from each pot, and five individuals were used for each treatment group. Either the distilled water or the inosine solution in a volume of 250 ml was applied to the soil in the pot by irrigation, 10, 14 and 19 days after the seeding. The inosine concentration in the soil given as a one-time application was 0.5 ppm, which was equivalent to 325 g/ha, in the 2 ppm solution group. Thirty-four days after the seeding, the number of root nodules (FIG. 3), the dry weight of root nodules (FIG. 4), the dry weight of aboveground parts, and the dry weight of underground parts (Table 1) were measured. The dry weight of root nodules, the dry weight of aboveground parts, and the dry weight of underground parts were indicated with relative values based on the values of the distilled water group, which were taken as 100. The application of the 2 ppm inosine solution increased all of the number of root nodules, the dry weight of root nodules, the dry weight of aboveground parts and the dry weight of underground parts.

[6] = 10 ppm inosine solution, 5 ml foliar spray 10, 14 and 19 days after seeding, vs distilled water group
[7] = 2 ppm inosine solution, irrigation 10, 14 and 19 days after seeding, vs distilled water group

SMILES: OC[C@H]1O[C@@H](n2cnc3c(O)ncnc32)[C@H](O)[C@@H]1O [Inosine, inosine]
- dry weight of aboveground parts [1]: clearly increased
- number of root nodules [1]: clearly increased
- growth of plant roots [2]: promote the growth of plant roots
- dry weight of aboveground parts [3]: increased
- dry weight of root nodules [3]: increased
- dry weight of underground parts [3]: increased
- number of root nodules [3]: increased
- dry weight of root nodules [4, 6]: increased
- number of root nodules [4, 6]: increased
- Dry weight of aboveground part [4]: 122.0
- Dry weight of underground part [4]: 111.9
- Dry weight of aboveground part ([4]; listed as inosine): increased
- Dry weight of underground part ([4]; listed as inosine): increased
- dry weight of root nodules [5, 7]: increased
- number of root nodules [5, 7]: increased
- Dry weight of aboveground part [5]: 105.1
- Dry weight of underground part [5]: 107.2
- Dry weight of aboveground part ([5]; listed as inosine): increased
- Dry weight of underground part ([5]; listed as inosine): increased
